Experimental data from patent US11407737B2, “Inhibitors of RAF kinases” (Kinnate Biopharma Inc., priority 2020, dated 2022).
Counter-ions that a name gives are not always drawn.

Target: human RAF1 (Homo sapiens (Human), UniProt P04049)
Test: Protein kinase assay (radiometric 33P-ATP, MEK1 (K97R) substrate), RAF-1
Assay type: biochemical
Conditions: human MEK1 (K97R) substrate 3 micromolar, ATP 10 micromolar; 10-dose, 3-fold serial dilution starting at 10 micromolar; read-out: RAF-1 IC50
Method: Example 1: Kinase Assay Protocol
Assay platform was used to measure kinase/inhibitor interactions as described previously (Anastassiadis et al., 2011). In brief, for each reaction, kinase and substrate were mixed in a buffer containing 20 mM HEPES (pH 7.5), 10 mM MgCl2, 1 mM EGTA, 0.02% Brij35, 0.02 mg/mL BSA, 0.1 mM Na3VO4, 2 mM DTT, and 1% DMSO. All compounds were solubilized in DMSO. Compounds were then added to each reaction mixture via acoustic dispense using an ECHO 550 nanoliter dispenser. For human RAF1 testing, human MEK1 (K97R) was used as a substrate at a concentration of 3 micromolar, with a final ATP concentration of 10 micromolar. For human BRAF testing, human MEK1 (K97R) was used as a substrate at 1 micromolar concentration, with a final ATP concentration of 25 micromolar. […] After a 20-min incubation, ATP (Sigma-Aldrich, St. Louis, Mo. 63178) and [g33P] ATP (specific activity 10 microCi/microliter) purchased at PerkinElmer (Boston, Mass., 02118 Cat #BLU 003H250UC) were added at a final total concentration of […]. Reactions were carried out at room temperature for 2 hr and spotted onto P81 ion exchange cellulose chromatography paper (Reaction Biology). Filter paper was washed in 0.75% phosphoric acid to remove unincorporated ATP. The percent remaining kinase activity relative to a vehicle-containing (DMSO) kinase reaction was calculated for each kinase/inhibitor pair. IC50 values were calculated using Prism 5 (GraphPad).

Sequence of human RAF1 (P04049 whole entry): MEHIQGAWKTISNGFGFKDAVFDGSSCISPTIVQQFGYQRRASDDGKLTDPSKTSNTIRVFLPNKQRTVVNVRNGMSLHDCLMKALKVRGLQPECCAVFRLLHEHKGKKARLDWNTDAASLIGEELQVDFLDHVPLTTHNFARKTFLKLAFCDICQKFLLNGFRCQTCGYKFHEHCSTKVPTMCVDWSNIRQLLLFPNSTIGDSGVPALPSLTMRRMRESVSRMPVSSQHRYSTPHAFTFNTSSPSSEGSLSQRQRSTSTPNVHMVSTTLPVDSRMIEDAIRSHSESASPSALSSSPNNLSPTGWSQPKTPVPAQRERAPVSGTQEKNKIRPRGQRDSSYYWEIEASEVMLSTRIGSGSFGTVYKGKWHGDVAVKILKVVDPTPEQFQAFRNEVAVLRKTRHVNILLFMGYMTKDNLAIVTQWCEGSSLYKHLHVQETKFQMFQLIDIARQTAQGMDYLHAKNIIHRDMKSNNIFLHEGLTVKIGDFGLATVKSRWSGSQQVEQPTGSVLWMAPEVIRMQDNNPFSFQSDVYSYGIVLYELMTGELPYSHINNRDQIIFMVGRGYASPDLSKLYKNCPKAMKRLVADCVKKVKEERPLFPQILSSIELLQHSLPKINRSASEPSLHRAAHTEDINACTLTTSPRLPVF

| IC50 | Compound |
| --- | --- |
| < 1 nM | Cc1ccc(NC(=O)N2CC[C@@H](CC(F)(F)F)C2)cc1-c1cc(CCCO)nc(N2CCOCC2)c1 [Example 24, (3S)—N-[3-[2-(3-hydroxypropyl)-6-(morpholin-4-yl)pyridin-4-yl]-4-methylphenyl]-3-(2,2,2-trifluoroethyl)pyrrolidine-1-carboxamide] |
| < 1 nM | COc1cc(-c2cc(-c3cc(NC(=O)N4CC[C@@H](CC(F)(F)F)C4)ccc3C)cc(N3CCOCC3)n2)ccn1 [Example 25, (3S)—N-[3-[2-methoxy-6-(morpholin-4-yl)-[2,4-bipyridin]-4-yl]-4-methylphenyl]-3-(2,2,2-trifluoroethyl)pyrrolidine-1-carboxamide] |
| < 1 nM | Cc1ccc(NC(=O)N2CC[C@@H](CC(F)(F)F)C2)cc1-c1cc(-c2cnc(O)o2)nc(N2CCOCC2)c1 [Example 26, (3S)—N-[3-[2-(2-hydroxy-1,3-oxazol-5-yl)-6-(morpholin-4-yl)pyridin-4-yl]-4-methylphenyl]-3-(2,2,2-trifluoroethyl)pyrrolidine-1-carboxamide] |
| 10 to 100 nM | Cc1ccc(NC(=O)N2CC[C@@H](CC(F)(F)F)C2)cc1-c1cc(N2CCOCC2)nc(C(C)(C)O)c1 [Example 27, (3S)—N-[3-[2-(2-hydroxypropan-2-yl)-6-(morpholin-4-yl)pyridin-4-yl]-4-methylphenyl]-3-(2,2,2-trifluoroethyl)pyrrolidine-1-carboxamide] |
| 10 to 100 nM | Cc1ccc(NC(=O)N2CC[C@@H](CC(F)(F)F)C2)cc1-c1cc(C2CCCNC2)nc(N2CCOCC2)c1 (stereo partly drawn) [Example 28, (3S)—N-[4-methyl-3-[2-(morpholin-4-yl)-6-(piperidin-3-yl)pyridin-4-yl]phenyl]-3-(2,2,2-trifluoroethyl)pyrrolidine-1-carboxamide] |
| 1 to 10 nM | Cc1ccc(NC(=O)N2CC[C@@H](CC(F)(F)F)C2)cc1-c1cc(C2CCCN(C)C2)nc(N2CCOCC2)c1 (stereo partly drawn) [Example 29, (3S)—N-[4-methyl-3-[2-(1-methylpiperidin-3-yl)-6-(morpholin-4-yl)pyridin-4-yl]phenyl]-3-(2,2,2-trifluoroethyl)pyrrolidine-1-carboxamide] |
| 1 to 10 nM | Cc1ccc(NC(=O)N2CC[C@@H](CC(F)(F)F)C2)cc1-c1cc(-c2ccnc(O)c2)nc(N2CCOCC2)c1 [Example 30, (3S)—N-[3-[2-hydroxy-6-(morpholin-4-yl)-[2,4-bipyridin]-4-yl]-4-methylphenyl]-3-(2,2,2-trifluoroethyl)pyrrolidine-1-carboxamide] |
| 10 to 100 nM | Cc1ccc(NC(=O)N2CC[C@@H](CC(F)(F)F)C2)cc1-c1cc(C2=CCN(C)CC2)nc(N2CCOCC2)c1 [Example 31, (3S)—N-[4-methyl-3-[1′-methyl-6-(morpholin-4-yl)-3′,6′-dihydro-2′H-[2,4′-bipyridin]-4-yl]phenyl]-3-(2,2,2-trifluoroethyl)pyrrolidine-1-carboxamide] |
| 1 to 10 nM | Cc1ccc(NC(=O)N2CC[C@@H](CC(F)(F)F)C2)cc1-c1cc(CCO)nc(N2CCOCC2)c1 [Example 32, (3S)—N-[3-[2-(2-hydroxyethyl)-6-(morpholin-4-yl)pyridin-4-yl]-4-methylphenyl]-3-(2,2,2-trifluoroethyl)pyrrolidine-1-carboxamide] |
| < 1 nM | Cc1ccc(NC(=O)N2CC[C@@H](CC(F)(F)F)C2)cc1-c1cc(-c2cn[nH]c2)nc(N2CCOCC2)c1 [Example 33, (3S)—N-[4-methyl-3-[2-(morpholin-4-yl)-6-(1H-pyrazol-4-yl)pyridin-4-yl]phenyl]-3-(2,2,2-trifluoroethyl)pyrrolidine-1-carboxamide] |
| < 1 nM | Cc1ccc(NC(=O)N2CC[C@@H](CC(F)(F)F)C2)cc1-c1cc(C2CCNC2)nc(N2CCOCC2)c1 (stereo partly drawn) [Example 34, (3S)—N-[4-methyl-3-[2-(morpholin-4-yl)-6-(pyrrolidin-3-yl)pyridin-4-yl]phenyl]-3-(2,2,2-trifluoroethyl)pyrrolidine-1-carboxamide] |
| 1 to 10 nM | Cc1ccc(NC(=O)N2CC[C@@H](CC(F)(F)F)C2)cc1-c1cc(C2=CCN(C)C2)nc(N2CCOCC2)c1 [Example 35, (3S)—N-[4-methyl-3-[2-(1-methyl-2,5-dihydropyrrol-3-yl)-6-(morpholin-4-yl)pyridin-4-yl]phenyl]-3-(2,2,2-trifluoroethyl)pyrrolidine-1-carboxamide] |
| < 1 nM | Cc1ccc(NC(=O)N2CC[C@@H](CC(F)(F)F)C2)cc1-c1cc(-c2ccn(C)n2)nc(N2CCOCC2)c1 [Example 36, (3S)—N-[4-methyl-3-[2-(1-methylpyrazol-3-yl)-6-(morpholin-4-yl)pyridin-4-yl]phenyl]-3-(2,2,2-trifluoroethyl)pyrrolidine-1-carboxamide] |
| 1 to 10 nM | Cc1ccc(NC(=O)N2CC[C@@H](CC(F)(F)F)C2)cc1-c1cc(-c2cn(C)nc2C)nc(N2CCOCC2)c1 [Example 37, (3S)—N-[3-[2-(1,3-dimethylpyrazol-4-yl)-6-(morpholin-4-yl)pyridin-4-yl]-4-methylphenyl]-3-(2,2,2-trifluoroethyl)pyrrolidine-1-carboxamide] |
| 1 to 10 nM | Cc1ccc(NC(=O)N2CC[C@@H](CC(F)(F)F)C2)cc1-c1cc(C2CCN(C)C2)nc(N2CCOCC2)c1 (stereo partly drawn) [Example 38, (3S)—N-(4-methyl-3-(2-(1-methylpyrrolidin-3-yl)-6-morpholinopyridin-4-yl)phenyl)-3-(2,2,2-trifluoroethyl)pyrrolidine-1-carboxamide formate] |
| 1 to 10 nM | Cc1ccc(NC(=O)N2CC[C@@H](CC(F)(F)F)C2)cc1-c1cc(C2CCN(C)CC2)nc(N2CCOCC2)c1 [Example 39, (S)—N-(4-methyl-3-(2-(1-methylpiperidin-4-yl)-6-morpholinopyridin-4-yl)phenyl)-3-(2,2,2-trifluoroethyl)pyrrolidine-1-carboxamide formate] |
| 1 to 10 nM | Cc1ccc(NC(=O)N2CC[C@@H](CC(F)(F)F)C2)cc1-c1cc(-c2ccnc(N)c2)nc(N2CCOCC2)c1 [Example 40, (3S)—N-[3-[2′-amino-6-(morpholin-4-yl)-[2,4′-bipyridin]-4-yl]-4-methylphenyl]-3-(2,2,2-trifluoroethyl)pyrrolidine-1-carboxamide] |
| 1 to 10 nM | Cc1ccc(NC(=O)N2CC[C@@H](CC(F)(F)F)C2)cc1-c1cc(-c2cnn(C(F)F)c2)nc(N2CCOCC2)c1 [Example 41, (3S)—N-(3-[2-[1-(difluoromethyl)pyrazol-4-yl]-6-(morpholin-4-yl)pyridin-4-yl]-4-methylphenyl)-3-(2,2,2-trifluoroethyl)pyrrolidine-1-carboxamide] |
| 1 to 10 nM | Cc1ccc(NC(=O)N2CC[C@@H](CC(F)(F)F)C2)cc1-c1cc(-c2cscn2)nc(N2CCOCC2)c1 [Example 42, (3S)—N-[4-methyl-3-[2-(morpholin-4-yl)-6-(1,3-thiazol-4-yl)pyridin-4-yl]phenyl]-3-(2,2,2-trifluoroethyl)pyrrolidine-1-carboxamide] |
| 1 to 10 nM | Cc1ccc(NC(=O)N2CC[C@@H](CC(F)(F)F)C2)cc1-c1cc(-c2cnc(N)[nH]2)nc(N2CCOCC2)c1 [Example 43, (3S)—N-[3-[2-(2-amino-3H-imidazol-4-yl)-6-(morpholin-4-yl)pyridin-4-yl]-4-methylphenyl]-3-(2,2,2-trifluoroethyl)pyrrolidine-1-carboxamide] |
| 1 to 10 nM | Cc1ccc(NC(=O)N2CC[C@@H](CC(F)(F)F)C2)cc1-c1cc(-c2cc(N)n(C)n2)nc(N2CCOCC2)c1 [Example 44, (3S)-N-[3-[2-(5-amino-1-methylpyrazol-3-yl)-6-(morpholin-4-yl)pyridin-4-yl]-4-methylphenyl]-3-(2,2,2-trif1uoroethyl)pyrrolidine-1-carboxamide] |
| 1 to 10 nM | Cc1ccc(NC(=O)N2CC[C@@H](CC(F)(F)F)C2)cc1-c1cc(-c2ccnc(N)n2)nc(N2CCOCC2)c1 [Example 45, (3S)—N-[3-[2-(2-aminopyrimidin-4-yl)-6-(morpholin-4-yl)pyridin-4-yl]-4-methylphenyl]-3-(2,2,2-trifluoroethyl)pyrrolidine-1-carboxamide] |
| 1 to 10 nM | Cc1ccc(NC(=O)N2CC[C@@H](CC(F)(F)F)C2)cc1-c1cc(-c2ccnc(C(F)F)c2)nc(N2CCOCC2)c1 [Example 46, (3S)—N-[3-[2′-(difluoromethyl)-6-(morpholin-4-yl)-[2,4′-bipyridin]-4-yl]-4-methylphenyl]-3-(2,2,2-trifluoroethyl)pyrrolidine-1-carboxamide] |
| 1 to 10 nM | Cc1ccc(NC(=O)N2CC[C@@H](CC(F)(F)F)C2)cc1-c1cc(-c2c[nH]nc2C)nc(N2CCOCC2)c1 [Example 47, (3S)—N-[4-methyl-3-[2-(3-methyl-1H-pyrazol-4-yl)-6-(morpholin-4-yl)pyridin-4-yl]phenyl]-3-(2,2,2-trifluoroethyl)pyrrolidine-1-carboxamide] |
| < 1 nM | Cc1ccc(NC(=O)N2CC[C@@H](CC(F)(F)F)C2)cc1-c1cc(-c2cnn(C)c2C)nc(N2CCOCC2)c1 [Example 48, (3S)—N-[3-[2-(1,5-dimethylpyrazol-4-yl)-6-(morpholin-4-yl)pyridin-4-yl]-4-methylphenyl]-3-(2,2,2-trifluoroethyl)pyrrolidine-1-carboxamide] |
